Measured values taken from ChEMBL document CHEMBL1926563, “Synthesis, antimicrobial, antimycobacterial and structure-activity relationship of substituted pyrazolo-, isoxazolo-, pyrimido- and mercaptopyrimidocyclohepta[b]indoles” (2012).
Values after ≈ are worked out from the molar mass of the structure shown. Active and inactive are the calls of the source. The calls are words filed in the database; no cut-off is given here.

Columns and labels:
[1] = system: Mycobacterium tuberculosis; assay: Antimycobacterial activity against Mycobacterium tuberculosis H37Rv after 7 days by resazurin microtiter plate assay; assay type: functional; conditions: 168 h
[2] = system: Bacillus subtilis; assay: Antibacterial activity against Bacillus subtilis NCIM 2063 assessed as zone of inhibition at 200 ug/disc after 24 hrs by disk diffusion method; assay type: functional; conditions: NCIM 2063, 24 h, read-out: DIZ
[3] = system: Fusarium solani; assay: Antifungal activity against Fusarium solani NCIM 1330 assessed as zone of inhibition at 100 ug/disc after 48 hrs by disk diffusion method; assay type: functional; conditions: NCIM 1330, 48 h, read-out: DIZ
[4] = system: Curvularia lunata; assay: Antifungal activity against Curvularia lunata NCIM 716 assessed as zone of inhibition at 200 ug/disc after 48 hrs by disk diffusion method; assay type: functional; conditions: NCIM 716, 48 h, read-out: DIZ
[5] = system: Curvularia lunata; assay: Antifungal activity against Curvularia lunata NCIM 716 assessed as zone of inhibition at 100 ug/disc after 48 hrs by disk diffusion method; assay type: functional; conditions: NCIM 716, 48 h, read-out: DIZ
[6] = system: Aspergillus niger; assay: Antifungal activity against Aspergillus niger NCIM 596 assessed as zone of inhibition at 100 ug/disc after 48 hrs by disk diffusion method; assay type: functional; conditions: NCIM 596, 48 h, read-out: DIZ
[7] = system: Klebsiella pneumoniae; assay: Antibacterial activity against Klebsiella pneumoniae NCIM 2957 assessed as zone of inhibition at 200 ug/disc after 24 hrs by disk diffusion method; assay type: functional; conditions: NCIM 2957, 24 h, read-out: DIZ
[8] = system: Proteus vulgaris; assay: Antibacterial activity against Proteus vulgaris NCIM 2027 assessed as zone of inhibition at 100 ug/disc after 24 hrs by disk diffusion method; assay type: functional; conditions: NCIM 2027, 24 h, read-out: DIZ
[9] = system: Aspergillus niger; assay: Antifungal activity against Aspergillus niger NCIM 596 assessed as zone of inhibition at 200 ug/disc after 48 hrs by disk diffusion method; assay type: functional; conditions: NCIM 596, 48 h, read-out: DIZ
[10] = system: Proteus vulgaris; assay: Antibacterial activity against Proteus vulgaris NCIM 2027 assessed as zone of inhibition at 200 ug/disc after 24 hrs by disk diffusion method; assay type: functional; conditions: NCIM 2027, 24 h, read-out: DIZ
[11] = system: Fusarium solani; assay: Antifungal activity against Fusarium solani NCIM 1330 assessed as zone of inhibition at 200 ug/disc after 48 hrs by disk diffusion method; assay type: functional; conditions: NCIM 1330, 48 h, read-out: DIZ
[12] = system: Staphylococcus aureus; assay: Antibacterial activity against Staphylococcus aureus NCIM 5021 assessed as zone of inhibition at 100 ug/disc after 24 hrs by disk diffusion method; assay type: functional; conditions: NCIM 5021, 24 h, read-out: DIZ
[13] = system: Klebsiella pneumoniae; assay: Antibacterial activity against Klebsiella pneumoniae NCIM 2957 assessed as zone of inhibition at 100 ug/disc after 24 hrs by disk diffusion method; assay type: functional; conditions: NCIM 2957, 24 h, read-out: DIZ
[14] = system: Bacillus subtilis; assay: Antibacterial activity against Bacillus subtilis NCIM 2063 assessed as zone of inhibition at 100 ug/disc after 24 hrs by disk diffusion method; assay type: functional; conditions: NCIM 2063, 24 h, read-out: DIZ
[15] = system: Staphylococcus aureus; assay: Antibacterial activity against Staphylococcus aureus NCIM 5021 assessed as zone of inhibition at 200 ug/disc after 24 hrs by disk diffusion method; assay type: functional; conditions: NCIM 5021, 24 h, read-out: DIZ
[16] = system: Mycobacterium tuberculosis; assay: Antimycobacterial activity against Mycobacterium tuberculosis H37Rv at 1.5 to 50 ug/ml after 7 days by resazurin microtiter plate assay; assay type: functional, organism-based

Row | Structure (SMILES) | MIC [1] | zone of inhibition at 200 µg/disc [2] | zone of inhibition at 100 µg/disc [3] | zone of inhibition at 200 µg/disc [4] | zone of inhibition at 100 µg/disc [5] | zone of inhibition at 100 µg/disc [6] | zone of inhibition at 200 µg/disc [7] | zone of inhibition at 100 µg/disc [8] | zone of inhibition at 200 µg/disc [9] | zone of inhibition at 200 µg/disc [10] | zone of inhibition at 200 µg/disc [11] | zone of inhibition at 100 µg/disc [12] | zone of inhibition at 100 µg/disc [13] | zone of inhibition at 100 µg/disc [14] | zone of inhibition at 200 µg/disc [15] | MIC [16]
1 | Cc1cccc2c3c([nH]c12)-c1c(cnn1-c1ccccc1)CCC3 | 25 µg/mL (≈ 79.8 µM) |  |  |  |  |  |  |  |  |  |  |  |  |  |  | 
2 | O=C1/C(=C/O)CCCc2c1[nH]c1ccccc21 | 50 µg/mL (≈ 220 µM) | 27 mm | 21 mm | 25 mm | 24 mm | 23 mm | 26 mm | 23 mm | 25 mm | 25 mm | 23 mm | 24 mm | 24 mm | 26 mm | 26 mm | 
3 | Cc1ccc2c3c([nH]c2c1)C(=O)/C(=C/O)CCC3 |  |  |  |  |  |  |  |  |  |  |  |  |  |  |  | inactive
4 | Cc1cccc2c3c([nH]c12)C(=O)/C(=C/O)CCC3 | 50 µg/mL (≈ 207 µM) |  |  |  |  |  |  |  |  |  |  |  |  |  |  | 
5 | O=C1/C(=C/O)CCCc2c1[nH]c1ccc(Cl)cc21 | 25 µg/mL (≈ 95.5 µM) | 32 mm | 29 mm | 30 mm | 27 mm | 25 mm | 30 mm | 25 mm | 31 mm | 28 mm | 30 mm | 31 mm | 28 mm | 28 mm | 33 mm | 
6 | Cc1ccc2c3c([nH]c2c1)-c1n[nH]cc1CCC3 | 25 µg/mL (≈ 105 µM) |  |  |  |  |  |  |  |  |  |  |  |  |  |  | 
7 | c1ccc2c3c([nH]c2c1)-c1nocc1CCC3 |  | 29 mm | 28 mm | 30 mm | 28 mm | 26 mm | 27 mm | 24 mm | 29 mm | 25 mm | 31 mm | 26 mm | 25 mm | 26 mm | 27 mm | inactive
8 | Cc1ccc2c3c([nH]c2c1)-c1nc(O)ncc1CCC3 |  |  |  |  |  |  |  |  |  |  |  |  |  |  |  | inactive
9 | Cc1cccc2c3c([nH]c12)-c1n[nH]cc1CCC3 | 25 µg/mL (≈ 105 µM) |  |  |  |  |  |  |  |  |  |  |  |  |  |  | 
10 | Cc1ccc2[nH]c3c(c2c1)CCCc1conc1-3 | 50 µg/mL (≈ 210 µM) | 32 mm | 31 mm | 32 mm | 29 mm | 28 mm | 29 mm | 26 mm | 31 mm | 28 mm | 34 mm | 29 mm | 26 mm | 30 mm | 31 mm | 
11 | c1ccc(-n2ncc3c2-c2[nH]c4ccccc4c2CCC3)cc1 |  | 26 mm | 28 mm | 31 mm | 29 mm | 26 mm | 24 mm | 20 mm | 30 mm | 23 mm | 33 mm | 25 mm | 21 mm | 24 mm | 27 mm | inactive
12 | Cc1ccc2c3c([nH]c2c1)-c1nocc1CCC3 | 25 µg/mL (≈ 105 µM) |  |  |  |  |  |  |  |  |  |  |  |  |  |  | 
13 | Cc1cccc2c3c([nH]c12)-c1nc(S)ncc1CCC3 | 50 µg/mL (≈ 178 µM) |  |  |  |  |  |  |  |  |  |  |  |  |  |  | 
14 | c1ccc2c3c([nH]c2c1)-c1n[nH]cc1CCC3 |  | 28 mm | 30 mm | 33 mm | 31 mm | 28 mm | 26 mm | 22 mm | 31 mm | 25 mm | 35 mm | 27 mm | 23 mm | 26 mm | 29 mm | inactive
15 | Cc1ccc2[nH]c3c(c2c1)CCCc1cnc(S)nc1-3 | 50 µg/mL (≈ 178 µM) | 16 mm | 13 mm | 20 mm | 16 mm | 14 mm | 12 mm | 10 mm | 16 mm | 12 mm | 16 mm | 13 mm | 11 mm | 14 mm | 15 mm | 
16 | Cc1ccc2[nH]c3c(c2c1)CCC/C(=C\O)C3=O | 25 µg/mL (≈ 104 µM) | 30 mm | 23 mm | 28 mm | 26 mm | 23 mm | 28 mm | 22 mm | 27 mm | 25 mm | 26 mm | 26 mm | 25 mm | 28 mm | 29 mm | 
17 | Cc1cccc2c3c([nH]c12)-c1nocc1CCC3 | 25 µg/mL (≈ 105 µM) |  |  |  |  |  |  |  |  |  |  |  |  |  |  | 
18 | Cc1cccc2c3c([nH]c12)-c1nc(O)ncc1CCC3 |  |  |  |  |  |  |  |  |  |  |  |  |  |  |  | inactive
19 | Cc1ccc2[nH]c3c(c2c1)CCCc1cnc(O)nc1-3 | 50 µg/mL (≈ 188 µM) | 24 mm | 14 mm | 21 mm | 18 mm | 15 mm | 23 mm | 19 mm | 18 mm | 21 mm | 19 mm | 23 mm | 21 mm | 21 mm | 25 mm | 
20 | Cc1ccc2[nH]c3c(c2c1)CCCc1c[nH]nc1-3 | 50 µg/mL (≈ 211 µM) | 33 mm | 34 mm | 36 mm | 33 mm | 31 mm | 30 mm | 24 mm | 34 mm | 25 mm | 37 mm | 30 mm | 28 mm | 31 mm | 32 mm | 
21 | Oc1ncc2c(n1)-c1[nH]c3ccccc3c1CCC2 |  | 29 mm | 13 mm | 18 mm | 16 mm | 11 mm | 24 mm | 21 mm | 15 mm | 23 mm | 16 mm | 25 mm | 22 mm | 27 mm | 28 mm | inactive
22 | Cc1ccc2c3c([nH]c2c1)-c1c(cnn1-c1ccccc1)CCC3 | 25 µg/mL (≈ 79.8 µM) |  |  |  |  |  |  |  |  |  |  |  |  |  |  | 
23 | Cc1ccc2c3c([nH]c2c1)-c1nc(S)ncc1CCC3 | 50 µg/mL (≈ 178 µM) |  |  |  |  |  |  |  |  |  |  |  |  |  |  | 
24 | Sc1ncc2c(n1)-c1[nH]c3ccccc3c1CCC2 |  | 14 mm | 11 mm | 16 mm | 13 mm | 10 mm | 11 mm | 8 mm | 13 mm | 10 mm | 14 mm | 11 mm | 9 mm | 12 mm | 13 mm | inactive
